Test results published in patent US20180208605A1, “Substituted Aza Compounds as IRAK-4 Inhibitors” (AURIGENE DISCOVERY TECHNOLOGIES LIMITED, priority 2015, published 2018).
Where a name gives a salt, the structure may show the parent alone.

Biological target: T1, recombinant IRAK-4 kinase (Homo sapiens, UniProt Q9NWZ3)
T1 construct: purchased Millipore, USA
T1 sequence (Q9NWZ3 1-460): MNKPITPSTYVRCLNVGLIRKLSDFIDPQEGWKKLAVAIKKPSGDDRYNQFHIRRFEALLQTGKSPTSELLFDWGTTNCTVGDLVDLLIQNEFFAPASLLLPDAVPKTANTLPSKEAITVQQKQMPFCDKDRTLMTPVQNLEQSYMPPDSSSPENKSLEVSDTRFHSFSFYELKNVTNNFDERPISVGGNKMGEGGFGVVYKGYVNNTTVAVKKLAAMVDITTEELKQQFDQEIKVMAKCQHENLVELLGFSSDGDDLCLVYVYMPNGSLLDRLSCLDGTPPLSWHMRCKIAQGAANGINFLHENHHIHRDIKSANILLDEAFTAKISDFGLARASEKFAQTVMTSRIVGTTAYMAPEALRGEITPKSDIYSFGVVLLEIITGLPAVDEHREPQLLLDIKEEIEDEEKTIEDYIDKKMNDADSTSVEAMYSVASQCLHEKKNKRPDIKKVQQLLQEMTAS
Experiment: IRAK-4 Biochemical Assay (TR-FRET, percent inhibition)
Settings: TR-FRET, 20 μM ATP, 100 nM Biotin Histone H3; for inhibition at 0.1 µM: read-out: % inhibition of IRAK-4 @0.1 μM, compound at 0.1 μM; for inhibition at 1 µM: read-out: % inhibition of IRAK-4 @ 1 μM, compound at 1 μM
Description: Compounds were tested for their potential to inhibit IRAK-4 enzyme in a TR-FRET assay using recombinant IRAK-4 kinase from Millipore, USA. The assay buffer was 50 mM Tris-HCl pH 7.5, 20 mM MgCl2, 1 mM EGTA, 2 mM DTT, 3 mM MnCl2 and 0.01% Tween 20.5 ng of IRAK-4 kinase was used for the assay. After pre-incubation of enzyme with test compound for 30 minutes at room temperature, a substrate mixture containing 100 nM Biotin Histone H3 (Millipore, USA) and 20 μM ATP (Sigma, USA) was added and the reaction was incubated for 30 min. Post incubation, the reaction was stopped by the addition of stop mix containing 40 mM EDTA, 1 nM of Europium-Anti-Phospho-Histone H3 (Ser10) antibody (Perkin Elmer, USA) and 20 nM SureLight Allophycocyanin-Streptavidin (Perkin Elmer, USA). The fluorescence emission at 615 nm and 665 nm were measured at an excitation of 340 nm and the percent inhibition was estimated from the ratio of the fluorescence intensities [(F665/F615)×10000].

In the case of Cl.O=C(Nc1cc2sc(N3CCOCC3)nc2nc1C1CC1)c1cnn2cccnc12 [Example 106, N-(5-cyclopropyl-2-morpholinothiazolo[4,5-b]pyridin-6-yl)pyrazolo[1,5-a]pyrimidine-3-carboxamide hydrochloride], the “% inhibition of IRAK-4 @0.1 μM” value (compound at 0.1 μM) is reported as 93% and the “% inhibition of IRAK-4 @ 1 μM” value (compound at 1 μM) is reported as 97%.

With O=C(Nc1cc2sc(N3CCOCC3)nc2nc1N1CC[C@@H](O)C1)c1cnn2cccnc12 [Example 103, (R)-N-(5-(3-hydroxypyrrolidin-1-yl)-2-morpholinothiazolo[4,5-b]pyridin-6-yl)pyrazolo[1,5-a]pyrimidine-3-carboxamide hydrochloride] the inhibition at 0.1 µM was 92% and the inhibition at 1 µM was 97%.

Nc1ccc(-c2cccc(C(=O)Nc3cc4oc(N5CCOCC5)nc4nc3N3CC[C@@H](O)C3)n2)cn1 [Example 90, (R)-6′-amino-N-(5-(3-hydroxypyrrolidin-1-yl)-2-morpholinooxazolo[4,5-b]pyridin-6-yl)-[2,3′-bipyridine]-6-carboxamide hydrochloride] showed an inhibition at 0.1 µM of 87% and an inhibition at 1 µM of 97%.

For O=C(Nc1cc2sc(N3CCOCC3)nc2nc1N1CCOCC1)c1cccc(N2CCC(O)C2)n1 (centres unmarked) [Example 76, N-(2,5-dimorpholinothiazolo[4,5-b]pyridin-6-yl)-6-(3-hydroxypyrrolidin-1-yl)picolinamide], the inhibition at 0.1 µM was 92% and the inhibition at 1 µM was 97%.

For NCC(=O)O[C@H]1CCN(c2nccc(C(=O)Nc3cc4sc(N5CCOCC5)nc4nc3N3CCCCC3)n2)C1 [Example 64, (S)-1-(4-((2-morpholino-5-(piperidin-1-yl)thiazolo[4,5-b]pyridin-6-yl)carbamoyl)pyrimidin-2-yl)pyrrolidin-3-yl glycinate], the inhibition at 0.1 µM was 74% and the inhibition at 1 µM was 92%.

Compound O=C(Nc1cc2sc(N3CCOCC3)nc2nc1N1CCC[C@@H](O)C1)c1cccc(N2CC[C@H](O)C2)n1 [Example 28, N-(5-((R)-3-hydroxypiperidin-1-yl)-2-morpholinothiazolo[4,5-b]pyridin-6-yl)-6-((S)-3-hydroxypyrrolidin-1-yl)picolinamide] has an inhibition at 0.1 µM of 90% and an inhibition at 1 µM of 93%.

Nc1cc(-c2nc(C(=O)Nc3cc4sc(N5CCOCC5)nc4nc3N3CCCCC3)co2)c(Cl)cn1 [Example 12, 2-(2-amino-5-chloropyridin-4-yl)-N-(2-morpholino-5-(piperidin-1-yl)thiazolo[4,5-b]pyridin-6-yl)oxazole-4-carboxamide] gave an inhibition at 0.1 µM of 98% and an inhibition at 1 µM of 98%.

O=C(Nc1cc2sc(N3CCOCC3)nc2nc1C1CC1)c1cnn2ccc(N3CCC(O)CC3)nc12 [Example 101, N-(5-cyclopropyl-2-morpholinothiazolo[4,5-b]pyridin-6-yl)-5-(4-hydroxypiperidin-1-yl)pyrazolo[1,5-a]pyrimidine-3-carboxamide] was tested, and the inhibition at 0.1 µM was 96% and the inhibition at 1 µM was 98%.

O=C(Nc1cc2sc(N3CCOCC3)nc2nc1N1CCCCC1)c1cccc(N2CCC(O)CC2)n1 [Example 56, 6-(4-hydroxypiperidin-1-yl)-N-(2-morpholino-5-(piperidin-1-yl)thiazolo[4,5-b]pyridin-6-yl)picolinamide] was tested, and the inhibition at 0.1 µM was 95% and the inhibition at 1 µM was 96%.

Work on C[C@H](O)Cn1cc(-c2cccc(C(=O)Nc3cc4oc(N5CCOCC5)nc4nc3N3CC[C@@H](O)C3)n2)cn1 [Example 94, 6-(1-((S)-2-hydroxypropyl)-1H-pyrazol-4-yl)-N-(5-((R)-3-hydroxypyrrolidin-1-yl)-2-morpholinooxazolo[4,5-b]pyridin-6-yl)picolinamide] yielded an inhibition at 0.1 µM of 12% and an inhibition at 1 µM of 60%.

Compound Nc1cc(-c2nc(C(=O)Nc3cc4oc(N5CCOCC5)nc4nc3N3CC[C@@H](O)C3)co2)c(Cl)cn1 [Example 88, (R)-2-(2-amino-5-chloropyridin-4-yl)-N-(5-(3-hydroxypyrrolidin-1-yl)-2-morpholinooxazolo[4,5-b]pyridin-6-yl)oxazole-4-carboxamide] has an inhibition at 0.1 µM of 15%.

In the case of O=C(Nc1cc2sc(N3CCOCC3)nc2nc1C1CC1)c1cnn2cccnc12 [Example 105, N-(5-cyclopropyl-2-morpholinothiazolo[4,5-b]pyridin-6-yl)pyrazolo[1,5-a]pyrimidine-3-carboxamide], the inhibition at 0.1 µM is reported as 96% and the inhibition at 1 µM is reported as 97%.

With Cc1cc(-c2nc(C(=O)Nc3cc4oc(N5CCOCC5)nc4nc3N3CC[C@@H](OC(=O)CN)C3)co2)ccn1 [Example 97, (R)-1-(6-(2-(2-methylpyridin-4-yl)oxazole-4-carboxamido)-2-morpholinooxazolo[4,5-b]pyridin-5-yl)pyrrolidin-3-yl glycinate] the inhibition at 0.1 µM was 87% and the inhibition at 1 µM was 99%.

NCC(=O)OC1CCN(c2cccc(C(=O)Nc3cc4sc(N5CCOCC5)nc4nc3N3CCOCC3)n2)C1 (centres unmarked) [Example 79, 1-(6-((2,5-dimorpholinothiazolo[4,5-b]pyridin-6-yl)carbamoyl)pyridin-2-yl)pyrrolidin-3-yl glycinate] was tested, and the inhibition at 0.1 µM was 70% and the inhibition at 1 µM was 96%.

With N[C@H]1CCCCC1Nc1ccn2ncc(C(=O)Nc3cc4sc(N5CCOCC5)nc4nc3C3CC3)c2n1 (some centres unmarked) [Example 98, 2,2,2-trifluoroacetate] the inhibition at 0.1 µM was 94% and the inhibition at 1 µM was 97%.

Work on Nc1cc(-c2cccc(C(=O)Nc3cc4sc(N5CCOCC5)nc4nc3C3CC3)n2)ccn1 [Example 52, 2′-amino-N-(5-cyclopropyl-2-morpholinothiazolo[4,5-b]pyridin-6-yl)-[2,4′-bipyridine]-6-carboxamide] yielded an inhibition at 0.1 µM of 95% and an inhibition at 1 µM of 96%.

Cc1cc(-c2nc(C(=O)Nc3cc4oc(N5CCOCC5)nc4nc3N3CCCC3=O)co2)ccn1 [Example 89, 2-(2-methylpyridin-4-yl)-N-(2-morpholino-5-(2-oxopyrrolidin-1-yl)oxazolo[4,5-b]pyridin-6-yl)oxazole-4-carboxamide hydrochloride] showed an inhibition at 0.1 µM of 26% and an inhibition at 1 µM of 73%.

In the case of NC1CCCN(c2ccn3ncc(C(=O)Nc4cc5sc(N6CCOCC6)nc5nc4C4CC4)c3n2)C1 (centres unmarked) [Example 21, 5-(3-aminopiperidin-1-yl)-N-(5-cyclopropyl-2-morpholinothiazolo[4,5-b]pyridin-6-yl)pyrazolo[1,5-a]pyrimidine-3-carboxamide], the inhibition at 0.1 µM is reported as 97% and the inhibition at 1 µM is reported as 98%.

O=C(Nc1cc2sc(N3CCOCC3)nc2nc1N1CCCCC1)c1cc(N2CC[C@H](O)C2)ccn1 [Example 68, (S)-4-(3-hydroxypyrrolidin-1-yl)-N-(2-morpholino-5-(piperidin-1-yl)thiazolo[4,5-b]pyridin-6-yl)picolinamide] showed an inhibition at 0.1 µM of 23% and an inhibition at 1 µM of 38%.

Compound O=C(Nc1cc2sc(N3CCOCC3)nc2nc1N1CCCCC1)c1cccc(NC2CCC(CO)CC2)n1 (centres unmarked) [Example 46, 6-((4-(hydroxymethyl)cyclohexyl)amino)-N-(2-morpholino-5-(piperidin-1-yl)thiazolo[4,5-b]pyridin-6-yl)picolinamide] has an inhibition at 0.1 µM of 75% and an inhibition at 1 µM of 94%.

Work on NCCNc1ccn2ncc(C(=O)Nc3cc4sc(N5CCOCC5)nc4nc3C3CC3)c2n1 [Example 22, 5-((2-aminoethyl)amino)-N-(5-cyclopropyl-2-morpholinothiazolo[4,5-b]pyridin-6-yl)pyrazolo[1,5-a]pyrimidine-3-carboxamide] yielded an inhibition at 0.1 µM of 97% and an inhibition at 1 µM of 98%.
